Drawing on ChEMBL document CHEMBL1154584, “Hachijodines A-G: seven new cytotoxic 3-alkylpyridine alkaloids from two marine sponges of the genera Xestospongia and amphimedon” (2000), this text covers Activity for 7 compounds.

The subject of the assay is P388. The assay is described as follows: Cytotoxicity against mouse P388 cells. The class given is functional.
Compound `CONCC(C)CCCCCCCCCCc1cccnc1` (configuration not stated) [HACHIJODINE C] showed an Activity of 2.2 µg/mL.
For `CN(O)CCCCCCCC/C=C\C#CCCCCc1cccnc1` [HACHIJODINE G], the Activity worked out at 1 µg/mL.
Then `CONCCC(C)CCCCCCCCCc1cccnc1` (configuration not stated) [HACHIJODINE B], with 2.2 µg/mL; and `CN(O)CCCCCCCCCCCCCc1cccnc1` [HACHIJODINE E], with 2.3 µg/mL; and `CN(O)CCCCCCCCC#CCCCCc1cccnc1` [HACHIJODINE F], with 1 µg/mL.
With `CONCCCCCCCCCCC(C)Cc1cccnc1` (configuration not stated) [HACHIJODINE D] the figure was 2.2 µg/mL; with `CONCCCCCCCCCCCCc1cccnc1` [HACHIJODINE A], 2.2 µg/mL.
